Data taken from patent US20190030170A1, “CANNABINOID FORMULATIONS WITH IMPROVED SOLUBILITY” (Vireo Health LLC, priority 2016, published 2019).
Values after ≈ are worked out from the molar mass of the structure shown.

Assay: solubility of CBD in water and other aqueous solvents with Captisol (SAE-CD) and/or added polymers, surfactants, pH
Type: physicochemical
Description: In some embodiments the addition of water soluble polymers and/or surfactants increases the solubility of the CBD/Captisol mixture. Therefore, in some embodiments the formulations may include the addition of these or other ingredients as solubility enhancers.

In the case of `C=C(C)[C@@H]1CCC(C)=C[C@H]1c1c(O)cc(CCCCC)cc1O` [CBD, cannabidiol], the solubility (aqueous solvent with 0.5% Poloxamer 188, without Captisol, aqueous with cosolvent or surfactant or cyclodextrin, Captisol 0%, 0.5% Poloxamer 188) is reported as 133 µg/mL (≈ 0.423 mM), the solubility (aqueous solvent, aqueous with cosolvent or surfactant or cyclodextrin, Captisol 0%, 1% CMC) is reported as 593 µg/mL (≈ 1.89 mM) and the solubility (aqueous solvent, aqueous with cosolvent or surfactant or cyclodextrin, Captisol 0%, 1% CrEL) is reported as 8960 µg/mL (≈ 28.5 mM). It also gave a solubility (aqueous solvent, aqueous with cosolvent or surfactant or cyclodextrin, Captisol 0%, 1% HPMC) of 590 µg/mL (≈ 1.88 mM), a solubility (aqueous solvent, aqueous with cosolvent or surfactant or cyclodextrin, Captisol 0%, 1% PVP) of 602 µg/mL (≈ 1.92 mM) and a solubility (aqueous solvent, aqueous with cosolvent or surfactant or cyclodextrin, Captisol 0%, 1% Tween 80) of 4200 µg/mL (≈ 13.3 mM). The solubility (aqueous solvent, aqueous with cosolvent or surfactant or cyclodextrin, Captisol 0%, 5% CrEL) was 21900 µg/mL (≈ 69.7 mM), the solubility (aqueous solvent, aqueous with cosolvent or surfactant or cyclodextrin, Captisol 0%, 10% CrEL) was 47800 µg/mL (≈ 152 mM) and the solubility (aqueous solvent, aqueous with cosolvent or surfactant or cyclodextrin, Captisol 20%, 0.5% CMC) was 14.5 µg/mL (≈ 0.0461 mM). It also gave a solubility (aqueous solvent, aqueous with cosolvent or surfactant or cyclodextrin, Captisol 20%, 0.5% HPMC) of 1320 µg/mL (≈ 4.2 mM), a solubility (aqueous solvent, aqueous with cosolvent or surfactant or cyclodextrin, Captisol 20%, 0.5% PVP) of 1180 µg/mL (≈ 3.74 mM) and a solubility (aqueous solvent, aqueous with cosolvent or surfactant or cyclodextrin, Captisol 20%, 0.5% Poloxamer 188) of 1410 µg/mL (≈ 4.49 mM). For the same compound, the solubility (aqueous solvent, aqueous with cosolvent or surfactant or cyclodextrin, Captisol 20%, 1% CMC) was 1710 µg/mL (≈ 5.44 mM), the solubility (aqueous solvent, aqueous with cosolvent or surfactant or cyclodextrin, Captisol 20%, 1% CrEL) was 4280 µg/mL (≈ 13.6 mM) and the solubility (aqueous solvent, aqueous with cosolvent or surfactant or cyclodextrin, Captisol 20%, 1% HPMC) was 1550 µg/mL (≈ 4.94 mM). The solubility (aqueous solvent, aqueous with cosolvent or surfactant or cyclodextrin, Captisol 20%, 1% PVP) was 1520 µg/mL (≈ 4.82 mM), the solubility (aqueous solvent, aqueous with cosolvent or surfactant or cyclodextrin, Captisol 20%, 1% Tween 80) was 2010 µg/mL (≈ 6.4 mM) and the solubility (aqueous solvent, aqueous with cosolvent or surfactant or cyclodextrin, Captisol 20%, 2% CMC) was 365 µg/mL (≈ 1.16 mM). The solubility (aqueous solvent, aqueous with cosolvent or surfactant or cyclodextrin, Captisol 20%, 2% PVP) was 840 µg/mL (≈ 2.67 mM), the solubility (aqueous solvent, aqueous with cosolvent or surfactant or cyclodextrin, Captisol 20%, 2% Tween 80) was 720 µg/mL (≈ 2.29 mM) and the solubility (aqueous solvent, aqueous with cosolvent or surfactant or cyclodextrin, Captisol 20%, 5% CrEL) was 13500 µg/mL (≈ 43 mM). It also gave a solubility (aqueous solvent, aqueous with cosolvent or surfactant or cyclodextrin, Captisol 20%, 5% CrEL and EtOH) of 21500 µg/mL (≈ 68.4 mM), a solubility (aqueous solvent, aqueous with cosolvent or surfactant or cyclodextrin, Captisol 20%, 10% CrEL) of 46700 µg/mL (≈ 149 mM) and a solubility (aqueous solvent, aqueous with cosolvent or surfactant or cyclodextrin, Captisol 20%, EtOH (line below the 10% heading)) of 920 µg/mL (≈ 2.93 mM). The solubility (aqueous solvent, aqueous with cosolvent or surfactant or cyclodextrin, Captisol 20%, additive None) was 850 µg/mL (≈ 2.7 mM), the solubility (aqueous solvent, aqueous with cosolvent or surfactant or cyclodextrin, Captisol 40%, 0.5% CMC) was 3270 µg/mL (≈ 10.4 mM) and the solubility (aqueous solvent, aqueous with cosolvent or surfactant or cyclodextrin, Captisol 40%, 0.5% HPMC) was 2680 µg/mL (≈ 8.52 mM). It also gave a solubility (aqueous solvent, aqueous with cosolvent or surfactant or cyclodextrin, Captisol 40%, 0.5% PVP) of 2950 µg/mL (≈ 9.37 mM), a solubility (aqueous solvent, aqueous with cosolvent or surfactant or cyclodextrin, Captisol 40%, 0.5% Tween 80) of 2020 µg/mL (≈ 6.42 mM) and a solubility (aqueous solvent, aqueous with cosolvent or surfactant or cyclodextrin, Captisol 40%, 1% CMC) of 2640 µg/mL (≈ 8.38 mM). It also gave a solubility (aqueous solvent, aqueous with cosolvent or surfactant or cyclodextrin, Captisol 40%, 1% HPMC) of 3450 µg/mL (≈ 11 mM), a solubility (aqueous solvent, aqueous with cosolvent or surfactant or cyclodextrin, Captisol 40%, 1% PVP) of 3280 µg/mL (≈ 10.4 mM) and a solubility (aqueous solvent, aqueous with cosolvent or surfactant or cyclodextrin, Captisol 40%, 1% Tween 80) of 2650 µg/mL (≈ 8.43 mM). For the same compound, the solubility (aqueous solvent, aqueous with cosolvent or surfactant or cyclodextrin, Captisol 40%, additive None) was 2800 µg/mL (≈ 8.9 mM), the solubility (aqueous solvent, aqueous with cosolvent or surfactant or cyclodextrin, Captisol 0%, 5% CrEL and EtOH) was 36200 µg/mL (≈ 115 mM) and the solubility (aqueous solvent, pH 2, aqueous with cosolvent or surfactant or cyclodextrin, Captisol 20%, pH ~2) was 2480 µg/mL (≈ 7.89 mM). The solubility (aqueous solvent, pH 4, aqueous with cosolvent or surfactant or cyclodextrin, Captisol 20%, pH 4) was 650 µg/mL (≈ 2.07 mM), the solubility (aqueous solvent, pH 7.4, aqueous with cosolvent or surfactant or cyclodextrin, Captisol 20%, PBS (pH = 7.4)) was 720 µg/mL (≈ 2.29 mM) and the solubility (aqueous solvent, pH 7.4, aqueous with cosolvent or surfactant or cyclodextrin, Captisol 40%, PBS (pH = 7.4)) was 2300 µg/mL (≈ 7.31 mM). For the same compound, the solubility (aqueous solvent, pH 9, aqueous with cosolvent or surfactant or cyclodextrin, Captisol 20%, pH 9) was 850 µg/mL (≈ 2.7 mM), the solubility (aqueous solvent, water, Captisol 0%, additive None) was 0.26 µg/mL (≈ 0.000827 mM) and the “effect of complexation with Captisol on solubility of CBD in water and other aqueous solvents” value (complexation with an SAE-CD (Captisol)) was “significantly increased”.
